Experimental data from patent US20160003808A1, “MOLECULAR TARGETS AND COMPOUNDS, AND METHODS TO IDENTIFY THE SAME, USEFUL IN THE TREATMENT OF DISEASES ASSOCIATED WITH EPITHELIAL MESENCHYMAL TRANSITION” (GALAPAGOS NV, priority 2013, published 2016).

Assays:
Fibronectin (FN) = test: EMT on target screen, FN read-out; format: cell-based, human; conditions: for OT FN Screen Z-score 2: as E11, duplicate 2; for Both (shRNA is a hit again in both OT assays, Yes/No): on target validation, Table 16; for OT FN Screen Z-score 1: robust Z-score, HBEC donor Br299, duplicate 1, cut-off Z ≦ −1.25
MMP10 = test: EMT on target screen, MMP10 read-out; format: cell-based, human; conditions: for OT MMP10 Screen Z-score 2: as E13, duplicate 2; for OT MMP10 Screen Z-score 1: robust Z-score, HBEC donor Br299, duplicate 1, cut-off Z ≦ −1.25
HBEC [1] = tested on: HBEC
HBEC [2] = test: ATPlite secondary toxicity assay
Description: In addition, a second toxicity assay was developed using the ATPlite (Perkin Elmer) assay to evaluate possible toxicity caused by target viruses. With this assay ATP, which is produced by metabolically active cells, reacts with luciferase and D-luciferin to emit light. This assay is based on the luciferase-mediated and ATP-dependent conversion of D-luciferin into oxyluciferin resulting in emission of light. The emitted light, measured as luminescence, is proportional to the ATP concentration in the sample and thus to the number of viable cells.
A staurosporin concentration curve (two-fold dilution ranging from 1 to 0.03 μM) was added to each cell plate as a reference for toxicity and the ATPlite read-out was performed.
The data after log transformation and robust Z-score normalization based on negatives was used for the analysis of the results.

HBEC [3] = test: CellTiter-Blue (CTB) cell viability assay in on target screen

Compound	OT FN Screen Z-score 2 (Fibronectin (FN))	Both (shRNA is a hit again in both OT assays, Yes/No) (Fibronectin (FN))	OT FN Screen Z-score 1 (Fibronectin (FN))	OT MMP10 Screen Z-score 2 (MMP10)	OT MMP10 Screen Z-score 1 (MMP10)	OT CTB assay Z-score 1 (HBEC [1])	OT CTB assay Z-score 2 (HBEC [1])	toxicity (HBEC [2]; 0.6 μM staurosporin treatment) [%]	average Z-score (HBEC [2]; 0.6 μM staurosporin, robust Z-score on negatives)	luminescence at highest concentration of staurosporin used (HBEC [2]; concentration curve 1 to 0.03 μM)	average Z-score of CTB data (HBEC [3]; 0.03 μM staurosporin, lowest concentration of the standard curve)	Z-score of CTB data (HBEC [3]; 0.06 μM staurosporin)
73 (GAAACCATCCTTTCTTGAA; chemistry not given here) [compound 73]	-2.91	no	-2.09	0.06	-0.19	-1.31	-2.09	–	–	–	–	–
74 (AGACCTGGTCTACATCGAC; chemistry not given here) [compound 74]	-4.17	no	-2.80	-2.12	-2.88	-8.40	-6.74	–	–	–	–	–
75 (TCGCTAGGTATGAATAACC; chemistry not given here) [compound 75]	-2.58	yes	-2.04	-0.75	0.15	-0.46	-2.90	–	–	–	–	–
CN[C@@H]1C[C@H]2O[C@@](C)([C@@H]1OC)n1c3ccccc3c3c4c(c5c6ccccc6n2c5c31)C(=O)NC4 [staurosporin]	–	–	–	–	–	–	–	30	−5.5	decreased the luminescence to near background signal	within the same range as the control panel and the trigger only samples	decreased clearly
